Laboratory results taken from US10316371B2, “Screening methods for identifying specific Staphylococcus aureus inhibitors” (TRANA DISCOVERY, INC., priority 2011, dated 2019).
pIC50: −log10 of the molar value. In brackets after ≈: the same amount, converted by molar mass.

Legend:
[1] = tested on: SA 33591 (Staphylococcus aureus, Methicillin Resistant (ATCC 33591)); test: MIC; type: cell-based; details: ATCC33591, SA 33591, read-out: MIC
Description: (§1) The strains included Staphylococcus aureus, Methicillin Resistant (ATCC 33591), Methicillin-Resistant Staphylococcus aureus USA300, Staphylococcus aureus 158, Staphylococcus aureus 22, Staphylococcus aureus 2, Staphylococcus aureus (ATCC 29213), and Staphylococcus aureus 182.
(§2) A series of compounds were evaluated for their activity against drug resistant S. aureus, including MSSA and MRSA strains.

[2] = tested on: SA 158 (Staphylococcus aureus 158); test: MIC; type: cell-based; details: SA 158, read-out: MIC
Description: as §1, §2

[3] = tested on: SA 2 (Staphylococcus aureus 2); test: MIC; type: cell-based; details: SA 2, read-out: MIC
Description: as §1, §2

[4] = tested on: SA USA 300 (Methicillin-Resistant Staphylococcus aureus USA300); test: MIC; type: cell-based; details: SA USA 300, read-out: MIC
Description: as §1, §2

[5] = tested on: SA 182 (Staphylococcus aureus 182); test: MIC; type: cell-based; details: SA 182, read-out: MIC
Description: as §1, §2

[6] = tested on: SA 29213 (Staphylococcus aureus (ATCC 29213)); test: MIC; type: cell-based; details: ATCC29213, SA 29213, read-out: MIC
Description: as §1, §2

[7] = tested on: SA 22 (Staphylococcus aureus 22); test: MIC; type: cell-based; details: SA 22, read-out: MIC
Description: as §1, §2

S. aureus strain 29213 = test: Time-kill experiments; type: cell-based; details: for reduction of bacterial counts / reduction of bacterial counts (killing): by 8 hours; for time-kill activity (cidal / static): 8 hrs
Description: Two compounds (#880 and #169) were tested in time-kill assays against S. aureus strain 29213. These compounds were then used to attempt to select for resistant variants by passaging at sub-MIC concentrations for 20 passages.
Twenty mL of MH-II media warmed to 37° C. was seeded with log-phase growth S. aureus strain 29213 at 1×10^6 cfu/mL in 50 mL erlenmeyer shake-flasks. Compound was added at 2× and 4× the MIC value. Negative controls (no drug) and positive drug controls (vancomycin at 2× and 4× the MIC) were included in the experiment. Flasks were shaken at 200 rpm and 37° C. Samples were taken at the times indicated (0, 2, 4, 6, 8 and 24 hrs post inoculation) and bacterial loads were quantified by limiting dilution assay.

[8] = tested on: S. aureus specific Arg ASL (anticodon stem loop) RNA oligomer interaction with programmed ribosomes; test: Fluorescence polarization assay of Arg ASL / programmed ribosome complex (HTS and dose response); type: binding, S. aureus Arg ASL; E. coli 70S ribosomes; details: 6 pt dose response, fluorescence polarization after 4 hours at 25° C., corrected for auto-fluorescence; read-out: IC50
Description: The assay requires the following materials: • Ribosomes—isolated from E. coli or S. aureus • fMet tRNA (Sigma or Chemical Block, Moscow) • mRNA (including the S-D sequence, the “box” sequence, the codon for methionine, and the codon for arginine that is specific for S. aureus, AGA, optionally with additional base pairs to the left of the S-D sequence and/or to the right of the codon for arginine) • Fluorescently labeled Arg ASL oliogomer • Buffer—HAM20,β • 384 well high binding micro titer plates (Matrix Technologies #4319, sold by Fischer Scientific as cat #50823855), or other appropriate plates for use in high throughput screening • Filtration (Sartorius Stedium 100 Kdalton VC 1042) or centrifugation for complex purification • EDTA—negative control (binding antagonist) • Neomycin—A-site binding enhancer (binding agonist)
A ribosome complex was prepared using the above materials and then purified prior to use in the assay. The prepared complex can be stored in concentrated form at −80° C. The complexes were diluted in buffer and dispensed onto plates. […] Fluorescence polarization was measured at approximately 4 hours after dispensing onto the micro-titer plates.
ASL^Arg was first heated for 2 min at 90° C. in water, after addition of 1/10 V of 10× buffer incubation continued on ice for at least 10 min. Prior to complex formation 70S ribosomes and tRNA were reactivated in buffer for 5 min at 45° C. followed by 10 min at 37° C.; mRNA was heated in buffer at 37° C. for 5 min. • (1000 μl×(2 μM E. coli 70S ribosomes+10 μM mRNA-Arg+4 μM tRNA^fmet)/HAM20,β→30 min @ 37° C.,+1000 μl×(0.2 μM neomycin+[…]))→20 min @ 37° C., overnight on ice • Final complex: (2000 pm P+2000 pm ASL)/2 ml=1 μM P+1 μM ASL HAM20,β:
Preparation of Complexes: The purified complex was diluted in ice cold HAM20,β such that the total fluorescence was approximately 2,000,000 units per 5 μL.
20 μl of the diluted complex was added to all 384 well plates (except for blank wells, which received 20 μL of HAM20 only, without complex) using Multidrop dispenser after which the plates were incubated at 25° C. for 4 hours (target 4.5 hours for middle of batch). Plates were then analyzed for fluorescence polarization in Analyst HT fluorescence plate reader and the following instrument settings:
The parallel and perpendicular fluorescence values of experimental wells were automatically corrected for the corresponding values obtained from the blank wells. The fluorescence polarization was calculated as following: P=(I−Ip)/(I+Ip), wherein Ip—is perpendicular fluorescence and I—is parallel fluorescence.
The percent of effect of experimental compounds was calculated as following: %-Inh=(P0−Pc)/(P0−P100)*100, wherein P0—is average polarization in 0%—inhibition control wells, P100—is average polarization in 100%—inhibition control wells, and Pc—is polarization in compound well.
The 3 sigma HTS hits were cherry picked and retested in 6 pt dose response format, using 3× serial dilution and the top nominal concentration of 100 uM.
The compounds were serially diluted in 10% DMSO and plated into 384 well plates (in a volume of 5 μL) to achieve the nominal final concentration raging from 100 μM to 0.4 μM. The plates received 20 μl of the diluted complex following incubation at 25° C. for 4 hours. Plates were then analyzed for fluorescence polarization as described above (see HTS section).
In parallel, the compounds were tested for auto-fluorescence. To this end, the compounds were plated (using the same dilution protocol) into 384 well plates. The plates received 20 μL of the HAM20 assay buffer only (without complex). The plates were incubated for 4 hrs and then were analyzed for fluorescence polarization as described above.

Compound	MIC [1]	MIC [2]	MIC [3]	MIC [4]	MIC [5]	MIC [6]	MIC [7]	reduction of bacterial counts (S. aureus strain 29213; 2× the MIC)	time-kill activity (cidal / static) (S. aureus strain 29213; 4× the MIC)	bacterial counts by 24 hrs post treatment (S. aureus strain 29213; 4× the MIC, 24 hrs)	reduction of bacterial counts (killing) (S. aureus strain 29213; 4× the MIC)	pIC50 [8]	time-kill activity (cidal / static) (S. aureus strain 29213; 2× the MIC)	time-kill result by 24 hrs post treatment (S. aureus strain 29213; 2× the MIC, 24 hrs)
Brc1ccc(-c2nc(N3CCNCC3)c3ccccc3n2)cc1 [Compound #880, 2-(4-bromophenyl)-4-(1-piperazinyl)-quinazoline]	8 µg/mL (≈ 21.7 µM)	8 µg/mL (≈ 21.7 µM)	4 µg/mL (≈ 10.8 µM)	8 µg/mL (≈ 21.7 µM)	8 µg/mL (≈ 21.7 µM)	8 µg/mL (≈ 21.7 µM)	8 µg/mL (≈ 21.7 µM)	2.5 log10	rapidly cidal	below detectable levels	> 3 log10	4.70	–	–
Cc1ccc2nc(-c3ccc(NC(=O)CN4CCN(CCO)CC4)cc3)sc2c1 [Compound #169, 2-[4-(2-hydroxyethyl)-1-piperazinyl]-N-[4-(6-methyl-1,3-benzothiazol-2-yl)phenyl]acetamide]	32 µg/mL (≈ 77.9 µM)	128 µg/mL (≈ 312 µM)	8 µg/mL (≈ 19.5 µM)	8 µg/mL (≈ 19.5 µM)	16 µg/mL (≈ 39 µM)	16 µg/mL (≈ 39 µM)	16 µg/mL (≈ 39 µM)	1 log10	static activity	–	1 log10	4.16	static activity	regrowth of bacteria
